From patent publication EP0248151A1, “Pantothenic acid as an antimutagenic agent” (SUNTORY LIMITED, priority 1983, dated 1984)

Legend:
[1] = system: Salmonella typhimurium TA 98; experiment: Ames test (preincubation method), inactivation of mutagenicity of benzo[a]pyrene, with S9 mix (rat liver homogenate); assay type: cell-based
Procedure: (§1) One of the methods for determining carcinogenicity that have recently been established is the Salmonella test (also known as the Ames test) that uses the requirement for histidine as an evaluation index (Ames, B.N. et al.: Mutation Res., Vol. 3l, 347, l975). […] Therefore, the present inventors chose to use the Ames test as a means for screening various compounds to discover cancer control substances.
(§2) • (i) Method: The preincubation method shown in Sugimura & Nagao: Chemical Mutagens, Vol. 6, page 4l, l98l was used. • (ii) Microorganism: Histidine requiring Salmonella typhimurium strains TA l00 and TA 98 (hereunder TA l00 and St TA 98) were used. • (iii) Preparation of samples • a) MNNG: To MNNG samples (l µg/plate), coenzyme A was added in amounts of 0.0l µM, 0.l µM and l.0 µM/plate. • b) Benzo[a]pyrene: To benzo[a]pyrene samples (l0 µg/plate), coenzyme A was added in amounts of 0.0009, 0.009 and 0.09µM/plate. • (iv) Measuring mutagenicity
(§3) To l00 µl of each of the samples prepared in (iii) a), 500 µl of l00 mM sodium phosphate buffer (pH 7.4) and l00 µl of a culture of St TA l00 were added. To l00 µl of each of the samples prepared in (iii) b), 500 µl of S9 mix (rat liver homogenate) and l00 µl of a culture of TA 98 were added. […] After incubation at 37°C for 48 hours, the number of colonies on the plates was counted as revertants. […]

[2] = system: Salmonella typhimurium TA l00; experiment: Ames test (preincubation method), inactivation of mutagenicity of MNNG, without S9; assay type: cell-based
Procedure: as §1, §2, §3

[3] = system: St TA l00 or St TA 98 strain; experiment: Ames test (preincubation method), inactivation of mutagenicity of carcinogens/mutagens by pantothenates, without S9; assay type: cell-based, Salmonella typhimurium
Procedure: as §2
• (i) Method: See Example l. • (ii) Microorganism: See Example l. • (iii) Preparation of samples • a) The carcinogenic or mutagenic substances used in Example 3 and their concentrations are listed in Table 5. [formula] • b) Adding pantothenates (Na and Ca salts) Pantothenates were added to each of the carcinogenic or mutagenic samples in amounts of 0, 0.005, 0.05, and 5.0 µM/plate. • (iv) Measuring mutagenicity To l00 µl of each of the samples prepared in (iii) a), 500 µl of l00 mM sodium phosphate buffer (pH 7.4) was added. Thereafter, l00 µl of a culture of St TA l00 or St TA 98 strain was added as indicated in Table 6. [formula] The respective mixtures were shaken for 20 minutes at 37°C. After adding 2.5 ml of a soft agar solution, the mixtures were spread on minimum glucose agar plates which had been supplemented with 0.l µM/plate of histidine for causing several […] of the cells. After incubation at 37°C for 48 hours, the number of colonies on the plates was counted as revertants.

CC(C)(COP(=O)(O)OP(=O)(O)OC[C@H]1O[C@@H](n2cnc3c(N)ncnc32)[C@H](O)[C@@H]1OP(=O)(O)O)[C@@H](O)C(=O)NCCC(=O)NCCS [Coenzyme A, coenzyme A]
inactivation of the mutagenicity of benzo[a]pyrene ([1]; 10 mols of coenzyme A added to 1 mol of benzo[a]pyrene): about 90%
inhibition of the mutagenicity of MNNG ([2]; 150 mols of coenzyme A added to 1 mol of MNNG): completely

Cc1ncc(COP(=O)(O)O)c(C=O)c1O [Pyridoxal-5′-phosphoric acid, pyridoxal-5′-phosphoric acid]
inactivation of the mutagenicity of benzo[a]pyrene ([1]; 25 mols of compound added to 1 mol of benzo[a]pyrene): about 80%
inhibition of the mutagenicity of MNNG ([2]; 150 mols of compound added to 1 mol of MNNG): about 50%

CC(C)(CO)[C@@H](O)C(=O)NCCC(=O)[O-].[Na+] [Sodium pantothenate, sodium pantothenate]
inactivation of the mutagenicity of methylglyoxal ([3]; 18 mols of sodium pantothenate added to 1 mol of methylglyoxal): 77%
inactivation of the mutagenicity of adriamycin ([3]; 2273 mols of sodium pantothenate added to 1 mol of adriamycin): 59%
inactivation of the mutagenicity of AF-2 ([3]; 6250 mols of sodium pantothenate added to 1 mol of AF-2): 58%

calcium pantothenate
inactivation of the mutagenicity of MNU ([3]; 6 mols of calcium pantothenate added to 1 mol of MNU): completely
inactivation of the mutagenicity of MNNG ([3]; 73 mols of calcium pantothenate added to 1 mol of MNNG): 48%
